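Tested at 5 concentrations; 48 h exposure; 96-well plates; endpoints linearly interpolated, else capped at highest concentration. GI50: concentration for 50% inhibition of growth. TGI: total growth inhibition.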
Experiments:
Assay in all cases: NCI tumour cell line growth inhibition, 48 h
HCT-15 colon = test system: HCT-15 colon
SK-OV-3 ovarian = test system: SK-OV-3 ovarian
IGROV1 ovarian = test system: IGROV1 ovarian
EKVX NSCLC = test system: EKVX NSCLC
BT-549 breast = test system: BT-549 breast
SK-MEL-2 melanoma = test system: SK-MEL-2 melanoma
OVCAR-4 ovarian = test system: OVCAR-4 ovarian
NCI-H226 lung = test system: NCI-H226 lung
MCF7 breast = test system: MCF7 breast
MDA-MB-435 = test system: MDA-MB-435

Row | SMILES | TGI (HCT-15 colon) | TGI (SK-OV-3 ovarian) | TGI (IGROV1 ovarian) | TGI (EKVX NSCLC) | GI50 (BT-549 breast) | TGI (BT-549 breast) | GI50 (HCT-15 colon) | GI50 (SK-OV-3 ovarian) | GI50 (SK-MEL-2 melanoma) | TGI (SK-MEL-2 melanoma) | GI50 (IGROV1 ovarian) | GI50 (OVCAR-4 ovarian) | TGI (OVCAR-4 ovarian) | GI50 (NCI-H226 lung) | TGI (NCI-H226 lung) | GI50 (EKVX NSCLC) | GI50 (MCF7 breast) | TGI (MCF7 breast) | GI50 (MDA-MB-435) | TGI (MDA-MB-435)
1 | COC(=O)CC(NC(=O)OCc1ccccc1)C(C(C)=O)C(=O)OCc1ccccc1 (stereo not drawn) | > 31.6 µM | > 31.6 µM | > 31.6 µM | > 31.6 µM | – | – | – | – | – | – | – | – | – | – | – | – | – | – | – | –
2 | O=C(CC(Cl)=C(Cl)Cl)Nc1ccccc1 | > 100 µM | > 100 µM | > 100 µM | > 100 µM | > 100 µM | > 100 µM | > 100 µM | > 100 µM | > 100 µM | > 100 µM | > 100 µM | > 100 µM | > 100 µM | > 100 µM | > 100 µM | > 100 µM | > 100 µM | > 100 µM | – | –
3 | N.N.N.N.N.[Co+3].[I-].[N-]=[N+]=[N-] | > 100 µM | > 100 µM | > 100 µM | > 100 µM | – | – | > 100 µM | > 100 µM | > 100 µM | > 100 µM | > 100 µM | > 100 µM | > 100 µM | – | – | > 100 µM | – | – | – | –
4 | O=C1C2Nc3ccccc3SC2C(=O)N1c1ccc(Br)cc1 (stereo not drawn) | > 100 µM | 61.1 µM | > 100 µM | > 100 µM | – | – | – | – | – | > 100 µM | – | – | 74.2 µM | – | 92.4 µM | – | – | – | – | –
5 | CN1c2ccccc2N(C(=O)c2ccc([N+](=O)[O-])cc2)C(CC(=O)O)c2cccn21 (stereo not drawn) | > 100 µM | > 100 µM | > 100 µM | > 100 µM | – | – | – | – | – | > 100 µM | – | – | > 100 µM | – | > 100 µM | – | – | – | – | –
6 | CCN1C/C(=C\c2cc(OC)c(OC)cc2OC)C(=O)/C(=C/c2cc(OC)c(OC)cc2OC)C1 | 11.3 µM | > 100 µM | 11.2 µM | 30.6 µM | 2.87 µM | 8.72 µM | 2.96 µM | 3.69 µM | 2.29 µM | 7.87 µM | 3.06 µM | 3.73 µM | > 100 µM | 2.59 µM | 5.59 µM | 3.5 µM | – | – | 2.07 µM | 4.3 µM
7 | CCC(C)CCOC(=O)c1ccc(N=Cc2ccc(C=Nc3ccc(C(=O)OCCC(C)CC)cc3)cc2)cc1 (stereo not drawn) | > 100 µM | > 100 µM | > 100 µM | > 100 µM | – | – | – | – | – | > 100 µM | – | – | > 100 µM | – | > 100 µM | – | – | – | – | –
8 | O=C(N/C(=C\c1ccc(Cl)cc1)c1nc2ccccc2[nH]1)c1ccccc1 | > 100 µM | 79.4 µM | 60 µM | 58.1 µM | – | – | – | – | – | 42.2 µM | – | – | 37.9 µM | – | 44.9 µM | – | – | – | – | –
9 | Cc1cc(NCCCCCCCCNc2cc(C)nc3cc(N)ccc23)c2ccc(N)cc2n1 | > 100 µM | > 100 µM | – | 61 µM | – | – | – | – | – | 40.4 µM | – | – | > 100 µM | – | 93.3 µM | – | – | – | – | –
10 | O=C(Oc1cccc2cccnc12)c1cc2c(cc1Cl)SC(N(c1ccc(F)cc1)S(=O)(=O)c1ccc(Br)s1)=NS2(=O)=O | > 100 µM | > 100 µM | > 100 µM | 64.1 µM | – | – | 25.9 µM | > 100 µM | 34.3 µM | > 100 µM | 60.3 µM | 17.8 µM | 46.8 µM | 66.4 µM | > 100 µM | 22.5 µM | 21.3 µM | 44 µM | 26 µM | > 100 µM
11 | CC(C)(O)[C@@H]1CC[C@@]2(C)CCCC(O)C2(O)C1 (stereo partly drawn) | > 100 µM | > 100 µM | > 100 µM | – | – | – | – | – | – | > 100 µM | – | – | > 100 µM | – | > 100 µM | – | – | – | – | –
12 | C[C@@H](NC1CCCC[C@H]1O)c1ccccc1 (stereo partly drawn) | > 100 µM | > 100 µM | > 100 µM | > 100 µM | – | – | – | – | – | > 100 µM | – | – | > 100 µM | – | > 100 µM | – | – | – | – | –
13 | N#CCCN(c1ccc(C=Nc2ccccc2)cc1)S(=O)(=O)c1ccccc1 | – | > 100 µM | > 100 µM | > 100 µM | – | – | – | – | – | > 100 µM | – | – | > 100 µM | – | > 100 µM | – | – | – | – | –
14 | Nc1ncnc2c1ncn2[C@]1(CO)C=C(CO)C(O)C1O (stereo partly drawn) | > 100 µM | > 100 µM | – | – | – | – | – | – | – | > 100 µM | – | – | > 100 µM | – | > 100 µM | – | – | – | – | –
15 | CC(=O)OCC1OC(n2cc(F)c(=O)[nH]c2=O)C(NC(=O)N(CCCl)N=O)C(OC(C)=O)C1OC(C)=O (stereo not drawn) | – | > 100 µM | > 100 µM | – | – | – | – | – | – | – | – | – | > 100 µM | – | – | – | – | – | – | –
16 | C/C(=C1/N=C(c2cc([N+](=O)[O-])ccc2Cl)N(c2cccc(C)c2)C1=O)c1cc2ccccc2oc1=O | > 100 µM | > 100 µM | > 100 µM | > 100 µM | – | – | – | – | – | > 100 µM | – | – | – | – | > 100 µM | – | – | – | – | –
17 | CCCCCN(CCCCC)C(=O)[C@@H](CCC(=O)O)NC(=O)c1cc2ccccc2[nH]1 | > 100 µM | > 100 µM | > 100 µM | > 100 µM | – | – | – | – | – | 62.2 µM | – | – | > 100 µM | – | > 100 µM | – | – | – | – | –
18 | COC(=O)C(Cc1cc(OC)c(OC)c(OC)c1)C(=O)OC | > 320 µM | > 320 µM | > 320 µM | > 320 µM | – | – | – | – | – | > 320 µM | – | – | – | – | – | – | – | – | – | –
19 | Cc1ccc(S(=O)(=O)OCCn2cnc3nc(NC(=O)c4ccccc4)[nH]c(=O)c32)cc1 | > 100 µM | > 100 µM | > 100 µM | > 100 µM | – | – | – | – | – | > 100 µM | – | – | > 100 µM | – | > 100 µM | – | – | – | – | –
20 | CCOC(=O)/C(=C/N1CCN(C(=O)c2ccco2)C1=S)C(=O)c1ccccc1 | 18.5 µM | > 50 µM | > 50 µM | 23.7 µM | 8.96 µM | 25 µM | 6.33 µM | 20 µM | – | – | > 50 µM | 31 µM | > 50 µM | – | – | 9.53 µM | – | – | 14.4 µM | > 50 µM
21 | O=C(/C=C/c1cc(Cl)cc(Cl)c1O)c1cccc(O)c1 | > 100 µM | > 100 µM | > 100 µM | > 100 µM | – | – | – | – | – | 61.7 µM | – | – | > 100 µM | – | 30.6 µM | – | – | – | – | –
22 | CN(C)C=Nc1ccn(CCO)c(=O)n1 | > 100 µM | > 100 µM | > 100 µM | > 100 µM | – | – | – | – | – | > 100 µM | – | – | > 100 µM | – | > 100 µM | – | – | – | – | –
23 | O=C1CSCc2sccc21 | > 100 µM | > 100 µM | > 100 µM | > 100 µM | – | > 100 µM | – | – | – | > 100 µM | – | – | > 100 µM | – | > 100 µM | – | – | > 100 µM | – | –
